This is an account of results in patent publication US20220168427A1 (Ranok Therapeutics (Hangzhou) Co. Ltd., priority 2019, published 2022).

The target of one data set is T1, BRD4 (BD1+BD2) (Homo sapiens, UniProt O60885).
T1 construct: 1.8 μg/ml recombinant BRD4 (BD1+BD2 domains) protein
Conditions: read-out: BRD4 Binding Potency.

The target of another data set is HSP90α (Homo sapiens, UniProt P07900). The experiment in a line: HSP90α Binding Fluorescent Polarization (FP) Assay. Conditions: competition with FITC-geldanamycin; read-out: HSP90 Binding Potency. The method in brief:
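Duplicate wells held BSA buffer, FITC-geldanamycin tracer, compound (3-fold dilution plate spanning 40 μM–2.0 nM) and recombinant protein diluted to 28 μg/ml before addition. Polarization read at 30, 60 and 120 min, 25 °C. Background-corrected mP values gave IC50 through a four-parameter inhibitor-response fit.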

Another data set has as its system MV4-11 cells. As to the kind of experiment: MV4-11 Cell Cytotoxicity Assay. In kind it is cell-based, human. Conditions: human, MV4-11 cells, CCK-8. The text has this: % Inhibition=100−(D−B)/(S−B)*100%.
S: The absorbance of the maximum (cells with DMSO)
B: The absorbance of the minimum (medium with DMSO)

Structures can show the parent of a compound that is named as a salt.

As for `Cc1sc2c(c1C)C(c1ccc(Cl)cc1)=N[C@@H](CC(=O)N1CCC(Cc3ccc(CN(C)Cc4ccc(-n5c(O)nnc5-c5cc(C(C)C)c(O)cc5O)cc4)cc3)CC1)c1nnc(C)n1-2` [Compound 83, (S)-2-(4-(4-chlorophenyl)-2,3,9-trimethyl-6H-thieno[3,2-f][1,2,4]triazolo[4,3-a][1,4]diazepin-6-yl)-1-(4-(4-(((4-(3-(2,4-dihydroxy-5-isopropylphenyl)-5-hydroxy-4H-1,2,4-triazol-4-yl)benzyl)(methyl)amino)methyl)benzyl)piperidin-1-yl)ethan-1-one, trifluoroacetic acid], the IC50 at BRD4 (BD1+BD2) was over 1000 nM; on HSP90α, 100 to 1000 nM. In addition, the IC50 at 72 h with MV4-11 cells was under 100 nM.

`Cc1sc2c(c1C)C(c1ccc(Cl)cc1)=N[C@@H](CC(=O)N1CCN(C(=O)C3CCN(c4ccc(-n5c(O)nnc5-c5cc(C(C)C)c(O)cc5O)cc4)CC3)CC1)c1nnc(C)n1-2` [Compound 29, (S)-2-(4-(4-chlorophenyl)-2,3,9-trimethyl-6H-thieno[3,2-f][1,2,4]triazolo[4,3-a][1,4]diazepin-6-yl)-1-(4-(1-(4-(3-(2,4-dihydroxy-5-isopropylphenyl)-5-hydroxy-4H-1,2,4-triazol-4-yl)phenyl)piperidine-4-carbonyl)piperazin-1-yl)ethan-1-one]: the IC50 at BRD4 (BD1+BD2) and at HSP90α was over 1000 nM throughout. In the data set with MV4-11 cells, this compound returned an IC50 at 72 h of 100 to 1000 nM.

Regarding `CCc1cc(-c2nnc(C(=O)NCC(F)(F)F)n2-c2ccc(CC3CCN(CC4CCN(C(=O)C[C@@H]5N=C(c6ccc(Cl)cc6)c6c(sc(C)c6C)-n6c(C)nnc65)CC4)CC3)cc2)c(O)cc1O` [Compound 86, (S)-4-(4-((1-((1-(2-(4-(4-chlorophenyl)-2,3,9-trimethyl-6H-thieno[3,2-f][1,2,4]triazolo[4,3-a][1,4]diazepin-6-yl)acetyl)piperidin-4-yl)methyl)piperidin-4-yl)methyl)phenyl)-5-(5-ethyl-2,4-dihydroxyphenyl)-N-(2,2,2-trifluoroethyl)-4H-1,2,4-triazole-3-carboxamide, trifluoroacetic acid], the IC50 at BRD4 (BD1+BD2) and on HSP90α was 100 to 1000 nM each time. The compound further yielded an IC50 at 72 h with MV4-11 cells of under 100 nM.

Regarding `CCc1cc(-c2nnc(O)n2-c2ccc(CN3CCN(CC4CCN(CC[C@@H]5N=C(c6ccc(Cl)cc6)c6c(sc(C)c6C)-n6c(C)nnc65)CC4)CC3)cc2)c(O)cc1O` [Compound 2, 4-(4-(4-((4-((1-(2-((6S)-4-(4-chlorophenyl)-2,3,9-trimethyl-6H-thieno[3,2-f][1,2,4]triazolo[4,3-a][1,4]diazepin-6-yl)ethyl)piperidin-4-yl)methyl)piperazin-1-yl)methyl)phenyl)-5-hydroxy-4H-1,2,4-triazol-3-yl)-6-ethylbenzene-1,3-diol, trifluoroacetic acid], the IC50 at BRD4 (BD1+BD2) is over 1000 nM; on HSP90α it was under 100 nM. This compound showed an IC50 at 72 h with MV4-11 cells of 100 to 1000 nM.

As to `Cc1sc2c(c1C)C(c1ccc(Cl)cc1)=N[C@@H](CC(=O)NCCOCc1ccc(-n3c(O)nnc3-c3cc(C(C)C)c(O)cc3O)cc1)c1nnc(C)n1-2` [Compound 52, 2-((6S)-4-(4-chlorophenyl)-2,3,9-trimethyl-6H-thieno[3,2-f][1,2,4]triazolo[4,3-a][1,4]diazepin-6-yl)-N-(2-((4-(3-(2,4-dihydroxy-5-isopropylphenyl)-5-hydroxy-4H-1,2,4-triazol-4-yl)benzyl)oxy)ethyl)acetamide], the IC50 on BRD4 (BD1+BD2) was over 1000 nM; on HSP90α, under 100 nM. This compound also displayed an IC50 at 72 h in the data set with MV4-11 cells of 100 to 1000 nM.

As for `Cc1sc2c(c1C)C(c1ccc(Cl)cc1)=N[C@@H](CC(=O)NCCOc1ccc(-n3c(S)nnc3-c3cc(C(C)C)c(O)cc3O)cc1)c1nnc(C)n1-2` [Compound 32, (S)-2-(4-(4-chlorophenyl)-2,3,9-trimethyl-6H-thieno[3,2-f][1,2,4]triazolo[4,3-a][1,4]diazepin-6-yl)-N-(2-(4-(3-(2,4-dihydroxy-5-isopropylphenyl)-5-mercapto-4H-1,2,4-triazol-4-yl)phenoxy)ethyl)acetamide], the IC50 on BRD4 (BD1+BD2) was over 1000 nM; at HSP90α it was 100 to 1000 nM. This compound also returned an IC50 at 72 h with MV4-11 cells of 100 to 1000 nM.

In the case of `CCn1c(=O)/c(=C2\Sc3ccccc3N2C)s/c1=C\c1cccc[n+]1CCCNC(=O)C[C@@H]1N=C(c2ccc(Cl)cc2)c2c(sc(C)c2C)-n2c(C)nnc21` [Compound 7, 1-(3-(2-((6S)-4-(4-chlorophenyl)-2,3,9-trimethyl-6H-thieno[3,2-f][1,2,4]triazolo[4,3-a][1,4]diazepin-6-yl)acetamido)propyl)-2-((Z)-((E)-3-ethyl-5-(3-methylbenzo[d]thiazol-2(3H)-ylidene)-4-oxothiazolidin-2-ylidene)methyl)pyridin-1-ium chloride], the figures for the IC50 at BRD4 (BD1+BD2) and at HSP90α were under 100 nM and over 1000 nM, respectively. Further, the IC50 at 72 h in the data set on MV4-11 cells lay within 100 to 1000 nM.

Take `Cc1cc(-c2nnc(O)n2-c2ccc(CN3CCN(CC4CCN(C(=O)C[C@@H]5N=C(c6ccc(Cl)cc6)c6c(sc(C)c6C)-n6c(C)nnc65)CC4)CC3)cc2)c(O)cc1O` [Compound 9, 2-((6S)-4-(4-chlorophenyl)-2,3,9-trimethyl-6H-thieno[3,2-f][1,2,4]triazolo[4,3-a][1,4]diazepin-6-yl)-1-(4-((4-(4-(3-(2,4-dihydroxy-5-methylphenyl)-5-hydroxy-4H-1,2,4-triazol-4-yl)benzyl)piperazin-1-yl)methyl)piperidin-1-yl)ethanone, trifluoroacetic acid]: the IC50 at BRD4 (BD1+BD2) is under 100 nM; at HSP90α, 100 to 1000 nM. In the data set with MV4-11 cells, this compound yielded an IC50 at 72 h of under 100 nM.

For the compound `COc1cccc(-c2cc(C(=O)Nc3ccc(-c4ccc(OC5CCN(C(=O)CNC(=O)C[C@@H]6N=C(c7ccc(Cl)cc7)c7c(sc(C)c7C)-n7c(C)nnc76)CC5)cc4O)cc3)ccc2OC)c1` [Compound 134], the IC50 on BRD4 (BD1+BD2) and at HSP90α was over 1000 nM each time. The compound further showed an IC50 at 72 h in the data set with MV4-11 cells of over 1000 nM.

In the case of `Cc1sc2c(c1C)C(c1ccc(Cl)cc1)=N[C@@H](CC(=O)NCC1CCN(C(=O)C3CCN(Cc4ccc(-n5c(O)nnc5-c5cc(C(C)C)c(O)cc5O)cc4)CC3)CC1)c1nnc(C)n1-2` [Compound 53, (S)-2-(4-(4-chlorophenyl)-2,3,9-trimethyl-6H-thieno[3,2-f][1,2,4]triazolo[4,3-a][1,4]diazepin-6-yl)-N-((1-(1-(4-(3-(2,4-dihydroxy-5-isopropylphenyl)-5-hydroxy-4H-1,2,4-triazol-4-yl)benzyl)piperidine-4-carbonyl)piperidin-4-yl)methyl)acetamide, trifluoroacetic acid], the IC50 at BRD4 (BD1+BD2) and on HSP90α was 100 to 1000 nM in each case. The IC50 at 72 h in the data set with MV4-11 cells was under 100 nM.

With `CCc1cc(-c2nnc(O)n2-c2ccc(CN3CCN(CC4CCN(C(=O)C[C@H]5N=C(c6ccc(Cl)cc6)c6c(sc(C)c6C)-n6c(C)nnc65)CC4)CC3)cc2)c(O)cc1O` [Compound 27, 2-((6R)-4-(4-chlorophenyl)-2,3,9-trimethyl-6H-thieno[3,2-f][1,2,4]triazolo[4,3-a][1,4]diazepin-6-yl)-1-(4-((4-(4-(3-(5-ethyl-2,4-dihydroxyphenyl)-5-hydroxy-4H-1,2,4-triazol-4-yl)benzyl)piperazin-1-yl)methyl)piperidin-1-yl)ethanone, trifluoroacetic acid], the IC50 at BRD4 (BD1+BD2) is over 1000 nM; at HSP90α it was 100 to 1000 nM. Also, in the data set on MV4-11 cells, the IC50 at 72 h was under 100 nM.

For `Cc1sc2c(c1C)C(c1ccc(Cl)cc1)=N[C@@H](CC(=O)N1CCC(CN3CCN(Cc4ccc(-n5c(O)nnc5-c5cc(C(C)C)c(O)cc5O)cc4)CC3)CC1)c1nnc(C)n1-2` [Compound 103, (S)-2-(4-(4-chlorophenyl)-2,3,9-trimethyl-6H-thieno[3,2-f][1,2,4]triazolo[4,3-a][1,4]diazepin-6-yl)-1-(4-((4-(4-(3-(2,4-dihydroxy-5-isopropylphenyl)-5-hydroxy-4H-1,2,4-triazol-4-yl)benzyl)piperazin-1-yl)methyl)piperidin-1-yl)ethan-1-one acetate], the IC50 on BRD4 (BD1+BD2) and at HSP90α was 100 to 1000 nM each time. The compound also returned an IC50 at 72 h in the data set on MV4-11 cells of under 100 nM.

Take `CCc1cc(-c2nnc(O)n2-c2ccc(CN3CCN(CC4CCN(C(=O)C[C@@H]5N=C(c6ccc(Cl)cc6)c6c(sc(C)c6C)-n6c(C)nnc65)CC4)CC3)cc2)c(O)cc1O` [Compound 10, (S)-2-(4-(4-chlorophenyl)-2,3,9-trimethyl-6H-thieno[3,2-f][1,2,4]triazolo[4,3-a][1,4]diazepin-6-yl)-1-(4-((4-(4-(3-(5-ethyl-2,4-dihydroxyphenyl)-5-hydroxy-4H-1,2,4-triazol-4-yl)benzyl)piperazin-1-yl)methyl)piperidin-1-yl)ethan-1-one hydrochloride]: the IC50 at BRD4 (BD1+BD2) and at HSP90α was 100 to 1000 nM each time. Besides, the IC50 at 72 h in the data set with MV4-11 cells was under 100 nM.

With `Cc1sc2c(c1C)C(c1ccc(Cl)cc1)=N[C@@H](CC(=O)N1CCN(Cc3ccc4c(c3)CN(C(=O)c3cc(C(C)C)c(O)cc3O)C4)CC1)c1nnc(C)n1-2` [Compound 141, (S)-2-(4-(4-chlorophenyl)-2,3,9-trimethyl-6H-thieno[3,2-f][1,2,4]triazolo[4,3-a][1,4]diazepin-6-yl)-1-(4-((2-(2,4-dihydroxy-5-isopropylbenzoyl)isoindolin-5-yl)methyl)piperazin-1-yl)ethan-1-one], the IC50 on BRD4 (BD1+BD2) and at HSP90α was 100 to 1000 nM each time. In the data set with MV4-11 cells, this compound came in with an IC50 at 72 h of 100 to 1000 nM.
